Measurements taken from patent publication US11084826B2, “RSV antiviral pyrazolo- and triazolo-pyrimidine compounds” (Janssen Sciences Ireland Unlimited Company, priority 2015, dated 2021).

Legend:
rgRSV224 virus = experiment: Antiviral activity: inhibition of rgRSV224 (GFP-expressing RSV) replication in HeLa cells, GFP expression read-out; type: cell-based, respiratory syncytial virus (RSV); settings: human respiratory syncytial virus, HeLa, read-out: RSV HELA pEC50, rgRSV224 virus (MOI=1) in HeLa cells, GFP read-out (converted)
Method in brief: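 EC50 is the 50% inhibitory concentration for GFP expression, read by laser microscopy three days after rgRSV224 infection (MOI=1) of HeLa cells (3,000/well). Compounds were tested as 9 serial 4-fold dilutions at 0.05% DMSO, and cells were incubated at 37° C under 5% CO2.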

[1] = Cytotoxicity in HeLa cells, ATP content measured with the ATPlite kit; type: cell-based; settings: human, TOX HELA pCC50

SMILES	EC50 (rgRSV224 virus)	CC50 at 3 days [1]	melting point
CC1CCCCCN1C(=O)c1cc(N(C)C)n2nc(-c3ccc(C(N)=O)cc3F)cc2n1 (stereo not drawn) [Compound I30]	240 nM	> 25100 nM	215 to 216 °C
CC1CCCCCN1C(=O)c1cc(C(F)(F)F)n2nc(-c3ccc(C(N)=O)cc3F)cc2n1 (stereo not drawn) [Compound I31]	141 nM	> 25100 nM	238 to 240 °C
CCc1cc(C(=O)N2CCn3cccc3C2C)nc2cc(-c3ccc(C(N)=O)cc3F)nn12 (stereo not drawn) [Compound I35]	43.7 nM	> 25100 nM	242 °C
CCc1cc(C(=O)N2CCc3c([nH]c4ccccc34)C2C)nc2cc(-c3ccc(C(N)=O)cc3F)nn12 (stereo not drawn) [Compound I38]	1780 nM	> 25100 nM	205 to 210 °C
CCc1cc(C(=O)N2CCCCCC2C)nc2c(F)c(-c3ccc(C(N)=O)cc3F)nn12 (stereo not drawn) [Compound J1]	148 nM	> 25100 nM	173 °C
CCc1cc(C(=O)N2CCCCCC2C)nc2c(F)c(-c3ccc(C(N)=O)cc3)nn12 (stereo not drawn) [Compound J2]	263 nM	> 25100 nM	195 to 200 °C
CCc1cc(C(=O)N2CCc3ccccc3C2C)nc2cc(-c3ccc(C(=O)O)cc3F)nn12 (stereo not drawn) [Compound K1]	158 nM	> 25100 nM	165 to 170 °C
CCc1cc(C(=O)N2CCCCCC2C)nc2cc(-c3ccc(C(=O)O)cc3F)nn12 (stereo not drawn) [Compound K2]	562 nM	> 25100 nM	210 °C
CCc1cc(C(=O)N2Cc3ccccc3CC2C)nc2cc(-c3ccc(C(=O)O)cc3F)nn12 (stereo not drawn) [Compound K3]	1100 nM	> 25100 nM	150 to 155 °C
CCc1cc(C(=O)N2CCCCCCC2C)nc2cc(-c3ccc(C(=O)O)cc3F)nn12 (stereo not drawn) [Compound K4]	275 nM	> 25100 nM	133 to 134 °C
CCc1cc(C(=O)N2CCCCC[C@H]2C)nc2cc(-c3ccc(C(=O)O)cc3F)nn12 [Compound K5]	309 nM	> 25100 nM	148 °C
CCc1cc(C(=O)N2CC(C)(C)c3ccccc3C2C)nc2cc(-c3ccc(C(=O)O)cc3F)nn12 (stereo not drawn) [Compound K6]	2400 nM	> 25100 nM	235 to 240 °C
CCc1cc(C(=O)N2CCCc3ccccc3C2C)nc2cc(-c3ccc(C(=O)O)cc3F)nn12 (stereo not drawn) [Compound K8]	437 nM	> 25100 nM	105 to 110 °C
CCc1cc(C(=O)N2CCn3cccc3C2C)nc2cc(-c3ccc(C(=O)O)cc3F)nn12 (stereo not drawn) [Compound K9]	525 nM	> 25100 nM	155 to 160 °C
CCc1cc(C(=O)N2CCCCCC2C)nc2cc(-c3ccc(C(=O)NC4CC4)cc3F)nn12 (stereo not drawn) [Compound L1]	129 nM	> 25100 nM	196 °C
CCc1cc(C(=O)N2CCCCCC2C)nc2cc(-c3ccc(C(=O)NCCN(C)C)cc3F)nn12 (stereo not drawn) [Compound L2]	550 nM	> 25100 nM	178 °C
CCCNC(=O)c1ccc(-c2cc3nc(C(=O)N4CCCCCC4C)cc(CC)n3n2)c(F)c1 (stereo not drawn) [Compound L3]	240 nM	> 25100 nM	188 °C
CCc1cc(C(=O)N2CCCCCC2C)nc2cc(-c3ccc(C(=O)NCCNC(C)=O)cc3F)nn12 (stereo not drawn) [Compound L4]	234 nM	> 25100 nM	174 °C
CCc1cc(C(=O)N2CCCCCC2C)nc2cc(-c3ccc(C(=O)NCCO)cc3F)nn12 (stereo not drawn) [Compound L5]	158 nM	> 25100 nM	177 °C
CCc1cc(C(=O)N2CCCCCC2C)nc2cc(-c3ccc(C(=O)NO)cc3F)nn12 (stereo not drawn) [Compound L6]	148 nM	20400 nM	180 °C
CCc1cc(C(=O)N2CCCCCC2C)nc2cc(-c3ccc(C(=O)NCc4ccco4)cc3F)nn12 (stereo not drawn) [Compound L7]	240 nM	> 25100 nM	168 °C
CCc1cc(C(=O)N2CCCCCC2C)nc2cc(-c3ccc(C(=O)NCc4cccs4)cc3F)nn12 (stereo not drawn) [Compound L8]	324 nM	> 25100 nM	156 °C
CCc1cc(C(=O)N2CCCCCC2C)nc2cc(-c3ccc(C(=O)NNCC4CC4)cc3F)nn12 (stereo not drawn) [Compound L9]	372 nM	> 25100 nM	140 °C
CCc1cc(C(=O)N2CCCCCC2C)nc2cc(-c3ccc(C(=O)NS(C)(=O)=O)cc3F)nn12 (stereo not drawn) [Compound L10]	2690 nM	> 25100 nM	194 °C

SMILES	EC50 (rgRSV224 virus)	CC50 at 3 days [1]	melting point
CCc1cc(C(=O)N2CCc3ccccc3C2C)nc2cc(-c3ccc(C(=O)NC(C)C(=O)O)cc3F)nn12 (stereo not drawn) [Compound L11]	631 nM	> 25100 nM	165 to 170 °C
CCc1cc(C(=O)N2CCCCCC2C)nc2cc(-c3ccc(/C=C/C(=O)O)cc3F)nn12 (stereo not drawn) [Compound M1]	174 nM	> 25100 nM	205 to 210 °C
CNc1cc(C(=O)N2CCCCC[C@H]2C)nc2cc(-c3ccc(/C=C/C(=O)O)cc3F)nn12 [Compound M3]	251 nM	> 25100 nM	198 to 200 °C
CC1c2ccccc2CCN1C(=O)c1cc(N(C)C)n2nc(-c3ccc(/C=C/C(=O)O)cc3F)cc2n1 (stereo not drawn) [Compound M10]	47.9 nM	20000 nM	243 to 245 °C
CCc1cc(C(=O)N2CCc3ccccc3C2C)nc2cc(-c3ccc(/C=C/C(=O)O)cc3F)nn12 (stereo not drawn) [Compound M11]	38 nM	> 25100 nM	225 to 230 °C
C[C@@H]1CCCCCN1C(=O)c1cc(N(C)C)n2nc(-c3ncc(/C=C/C(=O)O)cc3Cl)cc2n1 [Compound M12]	4070 nM	> 25100 nM	197 to 199 °C
C[C@@H]1CCCCCN1C(=O)c1cc(C2(C)CC2)n2nc(-c3ccc(/C=C/C(=O)O)cc3F)cc2n1 [Compound M20]	32.4 nM	36300 nM	228.12 °C
C[C@@H]1CCCCCN1C(=O)c1cc(C2CCC2)n2nc(-c3cccc(/C=C/C(=O)O)c3F)cc2n1 [Compound M23]	44.7 nM	> 100000 nM	231.54 °C
CCOc1cc(C(=O)N2CCCCC[C@H]2C)nc2cc(-c3ccc(/C=C/C(=O)O)cc3F)nn12 [Compound M24]	380 nM	> 100000 nM	213.66 °C
CC(C)Cc1cc(C(=O)N2CCCCC[C@H]2C)nc2cc(-c3cccc(/C=C/C(=O)O)c3F)nn12 [Compound M29]	38.9 nM	67600 nM	176 °C
C[C@@H]1CCCCCN1C(=O)c1cc(-c2cnn(C)c2)n2nc(-c3ccc(/C=C/C(=O)O)cc3F)cc2n1 [Compound M30]	40.7 nM	28200 nM	163 °C
CCc1cc(C(=O)N2CCn3nccc3C2C)nc2cc(-c3ccc(/C=C/C(=O)O)cc3F)nn12 (stereo not drawn) [Compound M41]	794 nM	> 25100 nM	225 to 230 °C
CCc1cc(C(=O)N2CCn3c(C)ccc3C2C)nc2cc(-c3ccc(/C=C/C(=O)O)cc3F)nn12 (stereo not drawn) [Compound M42]	191 nM	> 25100 nM	240 to 245 °C
CCc1cc(C(=O)N2CCn3cccc3C2C)nc2cc(-c3ccc(/C=C/C(=O)O)cc3F)nn12 (stereo not drawn) [Compound M43]	47.9 nM	> 25100 nM	255 to 260 °C
CC1c2ccsc2CCN1C(=O)c1cc(C2CC2)n2nc(-c3cccc(/C=C/C(=O)O)c3F)cc2n1 (stereo not drawn) [Compound M46]	5.01 nM	67600 nM	265.43 °C
CCc1cc(C(=O)N2CCCCCC2C)nc2cc(-c3ccc(/C=C/C(N)=O)cc3F)nn12 (stereo not drawn) [Compound N1]	129 nM	> 25100 nM	140 to 145 °C
C[C@@H]1c2ccsc2CCN1C(=O)c1cc(C2(C)CC2)n2nc(-c3ccc([C@@H]4C[C@H]4C(=O)O)cc3F)cc2n1 [Compound O21]	11 nM	55000 nM	207.61 °C
CCc1cc(C(=O)N2CCCCCC2C)nc2cc(-c3ccc(S(=O)(=O)N(C)C)cc3F)nn12 (stereo not drawn) [Compound P1]	2820 nM	> 25100 nM	120 °C
CCc1cc(C(=O)N2CCCCCC2C)nc2cc(-c3ccc(S(N)(=O)=O)cc3F)nn12 (stereo not drawn) [Compound P2]	646 nM	> 25100 nM	229 °C
CCc1cc(C(=O)N2CCCCCC2C)nc2cc(-c3ccc(S(=O)(=O)NC)cc3F)nn12 (stereo not drawn) [Compound P3]	692 nM	> 25100 nM	116 °C
CCc1cc(C(=O)N2CCCCCC2C)nc2cc(-c3ccc(CCC(=O)O)cc3F)nn12 (stereo not drawn) [Compound Q1]	537 nM	> 25100 nM	125 to 130 °C
CCc1cc(C(=O)N2CCCCCC2C)nc2cc(-c3ccc(CCC(N)=O)cc3F)nn12 (stereo not drawn) [Compound R1]	251 nM	> 25100 nM	95 to 100 °C
CCc1cc(C(=O)N2CCCCCC2C)nc2nc(-c3ccc(NC(=O)C4CC4)cc3F)nn12 (stereo not drawn) [Compound T1]	550 nM	> 100000 nM	210 to 215 °C
CCc1cc(C(=O)N2CCCCCC2C)nc2nc(-c3ccc(NC(=O)NCC4CCCO4)cc3F)nn12 (stereo not drawn) [Compound U1]	525 nM	> 100000 nM	185 to 190 °C
